# The supplement of paper PMC10307832
# Experiments:
# Test in all cases: relative viability (nuclei count vs DMSO), 5 days (fraction); higher = more cells survive
# NCI-H322M = tested on: NCI-H322M
# Outline: (§1)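 Lung cancer cell lines in 1536-well plates got either a single drug or a fixed anchor-drug dose together with five library-drug doses (not always all listed) in √10 steps, by pin tool, on the day after seeding. Nuclei were counted after 5 days, and relative viability is the treated-to-vehicle ratio of nuclei counts. Values are medians of duplicate plates.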
# ChaGo-K-1 = tested on: ChaGo-K-1
# Outline: as §1
# HOP-62 = tested on: HOP-62
# Outline: as §1
# NCI-H358 = tested on: NCI-H358
# Outline: as §1
# NCI-H3122 = tested on: NCI-H3122
# Outline: as §1
# NCI-H1915 = tested on: NCI-H1915
# Outline: as §1
# NCI-H2126 = tested on: NCI-H2126
# Outline: as §1
# NCI-H2023 = tested on: NCI-H2023
# Outline: as §1
# NCI-H1666 = tested on: NCI-H1666
# Outline: as §1
# UMC-11 = tested on: UMC-11
# Outline: as §1
# EPLC-272H = tested on: EPLC-272H
# Outline: as §1
# NCI-H1975 = tested on: NCI-H1975
# Outline: as §1
# ABC-1 = tested on: ABC-1
# Outline: as §1
# COR-L 105 = tested on: COR-L 105
# Outline: as §1
# EMC-BAC-2 = tested on: EMC-BAC-2
# Outline: as §1
# NCI-H1755 = tested on: NCI-H1755
# Outline: as §1
# CAL-12T = tested on: CAL-12T
# Outline: as §1
# NCI-H441 = tested on: NCI-H441
# Outline: as §1
# NCI-H2085 = tested on: NCI-H2085
# Outline: as §1
# LXF-289 = tested on: LXF-289
# Outline: as §1
# HCC-15 = tested on: HCC-15
# Outline: as §1
structure (smiles),measurement,setting,value
CC(=O)O[C@@]12CO[C@@H]1C[C@H](O)[C@@]1(C)C(=O)[C@H](O)C3=C(C)[C@@H](OC(=O)[C@H](O)[C@@H](NC(=O)OC(C)(C)C)c4ccccc4)C[C@@](O)([C@@H](OC(=O)c4ccccc4)[C@H]21)C3(C)C [Docetaxel] + CCNC(=O)c1noc(-c2cc(C(C)C)c(O)cc2O)c1-c1ccc(CN2CCOCC2)cc1 [Luminespib] (partner 0.01 µM),relative viability,NCI-H322M; first compound 0.0002 µM,0.836
same,relative viability,NCI-H322M; first compound 0.000632 µM,0.891
same,relative viability,NCI-H322M; first compound 0.002 µM,0.788
same,relative viability,NCI-H322M; first compound 0.006325 µM,0.557
same,relative viability,NCI-H322M; first compound 0.02 µM,0.347
same,relative viability,ChaGo-K-1; first compound 0.0002 µM,0.528
same,relative viability,ChaGo-K-1; first compound 0.000632 µM,0.468
same,relative viability,ChaGo-K-1; first compound 0.002 µM,0.251
same,relative viability,ChaGo-K-1; first compound 0.006325 µM,0.228
same,relative viability,HOP-62; first compound 0.0002 µM,0.938
same,relative viability,HOP-62; first compound 0.000632 µM,0.744
same,relative viability,HOP-62; first compound 0.002 µM,0.509
same,relative viability,HOP-62; first compound 0.006325 µM,0.282
same,relative viability,NCI-H358; first compound 0.0002 µM,0.314
same,relative viability,NCI-H358; first compound 0.000632 µM,0.305
same,relative viability,NCI-H358; first compound 0.002 µM,0.135
same,relative viability,NCI-H358; first compound 0.006325 µM,0.12
same,relative viability,NCI-H358; first compound 0.02 µM,0.098
same,relative viability,NCI-H3122; first compound 0.0002 µM,0.088
same,relative viability,NCI-H3122; first compound 0.000632 µM,0.101
same,relative viability,NCI-H3122; first compound 0.002 µM,0.104
same,relative viability,NCI-H3122; first compound 0.006325 µM,0.0883
same,relative viability,NCI-H3122; first compound 0.02 µM,0.115
same,relative viability,NCI-H1915; first compound 0.0002 µM,0.838
same,relative viability,NCI-H1915; first compound 0.000632 µM,0.796
same,relative viability,NCI-H1915; first compound 0.002 µM,0.467
same,relative viability,NCI-H1915; first compound 0.006325 µM,0.141
same,relative viability,NCI-H1915; first compound 0.02 µM,0.0759
same,relative viability,NCI-H2126; first compound 0.0002 µM,0.914
same,relative viability,NCI-H2126; first compound 0.000632 µM,0.739
same,relative viability,NCI-H2126; first compound 0.002 µM,0.591
same,relative viability,NCI-H2126; first compound 0.006325 µM,0.403
same,relative viability,NCI-H2126; first compound 0.02 µM,0.255
same,relative viability,NCI-H2023; first compound 0.0002 µM,0.682
same,relative viability,NCI-H2023; first compound 0.000632 µM,0.346
same,relative viability,NCI-H2023; first compound 0.002 µM,0.113
same,relative viability,NCI-H2023; first compound 0.006325 µM,0.105
same,relative viability,NCI-H2023; first compound 0.02 µM,0.0645
same,relative viability,NCI-H1666; first compound 0.0002 µM,0.943
same,relative viability,NCI-H1666; first compound 0.000632 µM,0.776
same,relative viability,NCI-H1666; first compound 0.002 µM,0.623
same,relative viability,NCI-H1666; first compound 0.006325 µM,0.512
same,relative viability,NCI-H1666; first compound 0.02 µM,0.374
same,relative viability,UMC-11; first compound 0.0002 µM,1.02
same,relative viability,UMC-11; first compound 0.000632 µM,0.917
same,relative viability,UMC-11; first compound 0.002 µM,0.406
same,relative viability,UMC-11; first compound 0.006325 µM,0.271
same,relative viability,UMC-11; first compound 0.02 µM,0.183
same,relative viability,EPLC-272H; first compound 0.0002 µM,0.133
same,relative viability,EPLC-272H; first compound 0.000632 µM,0.316
same,relative viability,EPLC-272H; first compound 0.002 µM,0.205
same,relative viability,EPLC-272H; first compound 0.006325 µM,0.0836
same,relative viability,EPLC-272H; first compound 0.02 µM,0.119
same,relative viability,NCI-H1975; first compound 0.0002 µM,0.364
same,relative viability,NCI-H1975; first compound 0.000632 µM,0.24
same,relative viability,NCI-H1975; first compound 0.002 µM,0.272
same,relative viability,NCI-H1975; first compound 0.006325 µM,0.155
same,relative viability,NCI-H1975; first compound 0.02 µM,0.181
same,relative viability,ABC-1; first compound 0.0002 µM,0.619
same,relative viability,ABC-1; first compound 0.000632 µM,0.704
same,relative viability,ABC-1; first compound 0.002 µM,0.231
same,relative viability,ABC-1; first compound 0.006325 µM,0.352
same,relative viability,ABC-1; first compound 0.02 µM,0.338
same,relative viability,COR-L 105; first compound 0.0002 µM,0.99
same,relative viability,COR-L 105; first compound 0.000632 µM,0.713
same,relative viability,COR-L 105; first compound 0.002 µM,0.531
same,relative viability,COR-L 105; first compound 0.006325 µM,0.595
same,relative viability,COR-L 105; first compound 0.02 µM,0.305
same,relative viability,EMC-BAC-2; first compound 0.0002 µM,1.15
same,relative viability,EMC-BAC-2; first compound 0.000632 µM,1.08
same,relative viability,EMC-BAC-2; first compound 0.002 µM,0.385
same,relative viability,EMC-BAC-2; first compound 0.006325 µM,0.368
same,relative viability,EMC-BAC-2; first compound 0.02 µM,0.238
same,relative viability,NCI-H1755; first compound 0.0002 µM,0.427
same,relative viability,NCI-H1755; first compound 0.000632 µM,0.492
same,relative viability,NCI-H1755; first compound 0.002 µM,0.271
same,relative viability,NCI-H1755; first compound 0.006325 µM,0.218
same,relative viability,NCI-H1755; first compound 0.02 µM,0.151
same,relative viability,CAL-12T; first compound 0.0002 µM,0.413
same,relative viability,CAL-12T; first compound 0.000632 µM,0.252
same,relative viability,CAL-12T; first compound 0.002 µM,0.199
same,relative viability,CAL-12T; first compound 0.006325 µM,0.168
same,relative viability,CAL-12T; first compound 0.02 µM,0.136
same,relative viability,NCI-H441; first compound 0.0002 µM,0.294
same,relative viability,NCI-H441; first compound 0.000632 µM,0.288
same,relative viability,NCI-H441; first compound 0.002 µM,0.3
same,relative viability,NCI-H441; first compound 0.006325 µM,0.257
same,relative viability,NCI-H441; first compound 0.02 µM,0.253
same,relative viability,NCI-H2085; first compound 0.0002 µM,0.378
same,relative viability,NCI-H2085; first compound 0.000632 µM,0.454
same,relative viability,NCI-H2085; first compound 0.002 µM,0.446
same,relative viability,NCI-H2085; first compound 0.006325 µM,0.322
same,relative viability,NCI-H2085; first compound 0.02 µM,0.341
same,relative viability,LXF-289; first compound 0.0002 µM,0.683
same,relative viability,LXF-289; first compound 0.000632 µM,0.694
same,relative viability,LXF-289; first compound 0.002 µM,0.138
same,relative viability,LXF-289; first compound 0.006325 µM,0.111
same,relative viability,LXF-289; first compound 0.02 µM,0.0768
same,relative viability,HCC-15; first compound 0.0002 µM,0.35
same,relative viability,HCC-15; first compound 0.000632 µM,0.303
same,relative viability,HCC-15; first compound 0.002 µM,0.173
same,relative viability,HCC-15; first compound 0.006325 µM,0.182
same,relative viability,HCC-15; first compound 0.02 µM,0.12
